This passage reports relative viability results from the supplement of paper PMC10307832.

Common to all, as to test: relative viability (nuclei count vs DMSO), 5 days (fraction); higher = more cells survive
Compound in test [1]: CCOc1cc2ncc(C#N)c(Nc3ccc(OCc4ccccn4)c(Cl)c3)c2cc1NC(=O)/C=C/CN(C)C [Neratinib] + CC1(C)CCC(c2ccc(Cl)cc2)=C(CN2CCN(c3ccc(C(=O)NS(=O)(=O)c4ccc(N[C@H](CCN5CCOCC5)CSc5ccccc5)c(S(=O)(=O)C(F)(F)F)c4)cc3)CC2)C1 [Navitoclax] (partner 0.5 µM)
A digest of the protocol:
(§1)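 Lung cancer cell lines were pin-tool dosed in 1536-well plates on the day after seeding, with either a lone drug or a fixed anchor-drug dose plus five library-drug doses (not always all listed) in √10 steps. Nuclei were counted on 4× images after 5 days. Relative viability is the ratio of treated-well to vehicle-well nuclei counts, with each value a median of duplicate plates.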

Compound in test [2]: CCOc1cc2ncc(C#N)c(Nc3ccc(OCc4ccccn4)c(Cl)c3)c2cc1NC(=O)/C=C/CN(C)C [Neratinib] + N=C(N)NC(=N)NCCc1ccccc1 [Phenformin] (partner 250 µM)
A digest of the protocol: as §1

Compound in test [3]: CCOc1cc2ncc(C#N)c(Nc3ccc(OCc4ccccn4)c(Cl)c3)c2cc1NC(=O)/C=C/CN(C)C [Neratinib] + Nc1nc2[nH]cc(CCc3ccc(C(=O)N[C@@H](CCC(=O)O)C(=O)O)cc3)c2c(=O)[nH]1 [Pemetrexed] (partner 0.2 µM)
In outline:
as §1

Compound in test [4]: CCOc1cc2ncc(C#N)c(Nc3ccc(OCc4ccccn4)c(Cl)c3)c2cc1NC(=O)/C=C/CN(C)C [Neratinib] + CC(=O)Nc1cccc(-n2c(=O)n(C3CC3)c(=O)c3c(Nc4ccc(I)cc4F)n(C)c(=O)c(C)c32)c1 [Trametinib] (partner 0.02 µM)
A digest of the protocol: as §1

LU99A: the relative viability is 0.881 in test [1] (first compound 0.03162 µM); 0.708 in test [1] (first compound 0.1 µM); 0.799 in test [1] (first compound 0.3162 µM); 0.359 in test [1] (first compound 1 µM); 0.92 in test [2] (first compound 0.01 µM); 0.905 in test [2] (first compound 0.03162 µM). Further, the relative viability in test [2] (first compound 0.1 µM) worked out at 0.87; in test [2] (first compound 0.3162 µM) it was 0.801; in test [2] (first compound 1 µM), 0.683; in test [3] (first compound 0.01 µM), 0.185; in test [3] (first compound 0.03162 µM) it was 0.194; in test [3] (first compound 0.1 µM), 0.155. Also, the relative viability in test [3] (first compound 0.3162 µM) came to 0.21; in test [3] (first compound 1 µM) it was 0.188; in test [4] (first compound 0.01 µM), 0.578; in test [4] (first compound 0.1 µM) it was 0.515; in test [4] (first compound 0.3162 µM), 0.527; in test [4] (first compound 1 µM), 0.43.

As to NCI-H1355, the relative viability came out at 0.912 in test [1] (first compound 0.01 µM); 1.06 in test [1] (first compound 0.03162 µM); 0.825 in test [1] (first compound 0.1 µM); 0.843 in test [1] (first compound 0.3162 µM); 0.618 in test [1] (first compound 1 µM); 0.485 in test [2] (first compound 0.01 µM). The relative viability in test [2] (first compound 0.03162 µM) is 0.433; in test [2] (first compound 0.1 µM) it was 0.408; in test [2] (first compound 0.3162 µM), 0.417; in test [2] (first compound 1 µM), 0.427; in test [3] (first compound 0.01 µM), 1.07; in test [3] (first compound 0.03162 µM), 1.03. The relative viability in test [3] (first compound 0.1 µM) worked out at 0.951; in test [3] (first compound 0.3162 µM), 1.02; in test [3] (first compound 1 µM), 0.821; in test [4] (first compound 0.01 µM), 0.422; in test [4] (first compound 0.03162 µM) it was 0.421; in test [4] (first compound 0.1 µM), 0.344. In addition, the relative viability in test [4] (first compound 0.3162 µM) came to 0.361; in test [4] (first compound 1 µM), 0.349.

Turning to NCI-H650, the relative viability was found to be 0.509 in test [2] (first compound 0.01 µM); 0.505 in test [2] (first compound 0.03162 µM); 0.493 in test [2] (first compound 0.1 µM); 0.392 in test [2] (first compound 0.3162 µM); 0.423 in test [2] (first compound 1 µM); 0.98 in test [3] (first compound 0.01 µM). In addition, the relative viability in test [3] (first compound 0.03162 µM) worked out at 1.11; in test [3] (first compound 0.1 µM), 0.932; in test [3] (first compound 0.3162 µM) it was 0.831; in test [3] (first compound 1 µM), 0.773; in test [4] (first compound 0.01 µM) it was 0.968; in test [4] (first compound 0.03162 µM) it was 1.03. Besides, the results for the relative viability in test [4] (first compound 0.1 µM) and in test [4] (first compound 1 µM) were 1.16 and 0.937, respectively.

As for PC-14, the relative viability in test [1] (first compound 0.01 µM) is 0.988; in test [1] (first compound 0.03162 µM), 1.01; in test [1] (first compound 0.1 µM), 0.928; in test [1] (first compound 0.3162 µM), 0.936; in test [1] (first compound 1 µM), 0.24; in test [2] (first compound 0.01 µM), 0.602. Besides, the relative viability in test [2] (first compound 0.03162 µM) was 0.764; in test [2] (first compound 0.1 µM) it was 0.655; in test [2] (first compound 0.3162 µM), 0.267; in test [2] (first compound 1 µM), 0.186; in test [3] (first compound 0.01 µM), 0.128; in test [3] (first compound 0.03162 µM) it was 0.118. Further, the relative viability was found to be 0.14 in test [3] (first compound 0.1 µM); 0.141 in test [3] (first compound 0.3162 µM); 0.0777 in test [3] (first compound 1 µM); 0.717 in test [4] (first compound 0.01 µM); 0.832 in test [4] (first compound 0.03162 µM); 0.573 in test [4] (first compound 0.1 µM). Also, the relative viability in test [4] (first compound 0.3162 µM) amounted to 0.096; in test [4] (first compound 1 µM), 0.0456.

As to NCI-H838, the relative viability in test [1] (first compound 0.01 µM) was found to be 1.21; in test [1] (first compound 0.03162 µM) it was 1.22; in test [1] (first compound 0.1 µM), 0.972; in test [1] (first compound 0.3162 µM) it was 0.995; in test [1] (first compound 1 µM), 0.588; in test [2] (first compound 0.01 µM) it was 0.63. Also, the relative viability came out at 0.669 in test [2] (first compound 0.03162 µM); 0.579 in test [2] (first compound 0.1 µM); 0.433 in test [2] (first compound 0.3162 µM); 0.234 in test [2] (first compound 1 µM); 0.247 in test [3] (first compound 0.01 µM); 0.268 in test [3] (first compound 0.03162 µM). The relative viability in test [3] (first compound 0.1 µM) was found to be 0.242; in test [3] (first compound 0.3162 µM) it was 0.239; in test [3] (first compound 1 µM) it was 0.243; in test [4] (first compound 0.01 µM), 0.53; in test [4] (first compound 0.03162 µM), 0.554; in test [4] (first compound 0.1 µM), 0.502. Also, the relative viability in test [4] (first compound 0.3162 µM) came out at 0.499; in test [4] (first compound 1 µM) it was 0.281.

With NCI-H727, the relative viability came out at 0.446 in test [1] (first compound 0.01 µM); 0.443 in test [1] (first compound 0.03162 µM); 0.4 in test [1] (first compound 0.3162 µM); 0.267 in test [1] (first compound 1 µM); 0.521 in test [2] (first compound 0.01 µM); 0.597 in test [2] (first compound 0.03162 µM). In addition, the relative viability in test [2] (first compound 0.1 µM) amounted to 0.294; in test [2] (first compound 0.3162 µM) it was 0.4; in test [2] (first compound 1 µM), 0.595; in test [4] (first compound 0.01 µM), 0.398; in test [4] (first compound 0.03162 µM), 0.427; in test [4] (first compound 0.3162 µM) it was 0.355. Moreover, the relative viability in test [4] (first compound 1 µM) was 0.332.

For 201T, the relative viability was 1.26 in test [1] (first compound 0.01 µM); 1.19 in test [1] (first compound 0.03162 µM); 1.18 in test [1] (first compound 0.1 µM); 1.22 in test [1] (first compound 0.3162 µM); 1.25 in test [1] (first compound 1 µM); 0.484 in test [2] (first compound 0.01 µM). The relative viability turned out to be 0.424 in test [2] (first compound 0.03162 µM); 0.44 in test [2] (first compound 0.1 µM); 0.379 in test [2] (first compound 0.3162 µM); 0.42 in test [2] (first compound 1 µM); 0.358 in test [3] (first compound 0.01 µM); 0.373 in test [3] (first compound 0.03162 µM). In addition, the relative viability in test [3] (first compound 0.1 µM) was 0.316; in test [3] (first compound 0.3162 µM), 0.35; in test [3] (first compound 1 µM), 0.324; in test [4] (first compound 0.01 µM) it was 0.755; in test [4] (first compound 0.1 µM), 0.688; in test [4] (first compound 0.3162 µM), 0.707. Further, the relative viability in test [4] (first compound 1 µM) was 0.707.

For the cell line RERF-LC-KJ, the relative viability in test [1] (first compound 0.01 µM) was determined as 0.854; in test [1] (first compound 0.03162 µM) it was 1.07; in test [1] (first compound 0.1 µM), 0.724; in test [1] (first compound 0.3162 µM), 0.69; in test [1] (first compound 1 µM), 0.493; in test [2] (first compound 0.01 µM) it was 0.427. Also, the relative viability in test [2] (first compound 0.03162 µM) came out at 0.405; in test [2] (first compound 0.1 µM), 0.385; in test [2] (first compound 0.3162 µM), 0.318; in test [2] (first compound 1 µM), 0.353; in test [3] (first compound 0.01 µM), 0.484; in test [3] (first compound 0.03162 µM) it was 0.483. Besides, the relative viability in test [3] (first compound 0.1 µM) stood at 0.505; in test [3] (first compound 0.3162 µM), 0.477; in test [3] (first compound 1 µM), 0.405; in test [4] (first compound 0.01 µM), 0.844; in test [4] (first compound 0.03162 µM), 0.889; in test [4] (first compound 0.1 µM), 0.785. Besides, the relative viability was 0.694 in test [4] (first compound 0.3162 µM) and 0.504 in test [4] (first compound 1 µM).
